Test system: rat PCA
Assay: Passive Cutaneous Anaphylaxis (PCA) in rats
Format: in vivo, Male Wistar rats
Conditions: sc
Protocol: Serum containing heat-labile homocytotropic antibody was raised in rats to crystallized ovalbumin XOA by the method of Mota (I. Mota, Immunology, 7, 681, (1964)) using Bordettela pertussis vaccine as adjuvant.
Passive cutaneous anaphylaxis (PCA) was carried out by a method based on that of Ovary and Bier, (A. Ovary and O. G. Bier, Proc. Soc. Exp. Bio. Med 81, 584, (1952)) as modified by Goose and Blair. (Immunology 16, 749 (1969)).
Male Wistar rats of 250-300 g were give 0.1 ml of each of six twofold serial dilutions of pooled antiserum in 0.9% saline injected intradermally into separate sites on their shaved backs. Later (72 hours) the animals were challenged by intravenous injection of 0.3 ml of a 1% solution of ovalbumin in an isotonic solution of saline buffered with 0.05 M, pH 7.2, Sorenson Buffer (PBS), mixed with 0.2 ml of a 5% solution of Pontamine Sky Blue (6BX C.I. 24410, Raymond A. Lamb, London) in isotonic saline. The rats were killed after 20 minutes and the diameter of the blue wheals at the antibody injection sites were measured on the outer surface of the skin. The starting dilution of the serum was adjusted so that there was no response, after challenge, at the injection site of the highest dilution and a maximum response at the lowest dilutions. Typically six twofold serial dilutions of the serum from 1/4 to 1/128 were used.
Compounds were tested for their ability to reduce the diameter of the wheals at those intradermal sites which in control animals gave less than maximum response. Each dose of the compound was administered to six rats at a measured time prior to intravenous challenge with ovalbumin. Control groups of six rats were given the same volume (0.2 ml: 100 g^-1) of carrier fluid at the same time prior to the challenge.
The results were calculated as follows: % inhibition of PCA=100 (1-a/b) where a=the sum of the diameters of the wheals produced in the test animal at the sites of antibody dilutions as used in control groups and b=the mean sum of the diameters of the wheals produced in the control groups of animals at those antibody sites where at least five out of six of the animals gave less than maximum response. A typical variation in the control group of animals was SEM±6%.
*Time between administration of compound and antigen challenge.

SMILES: Cc1c(O)ccc2c(=O)c3[nH]nnc3oc12 [Example 1f, 6-Hydroxy-5-methyl-9-oxo-1H,9H-benzopyrano[2,3-d]-v-triazole]
- % inhibition of rat PCA (PBS with NaHCO3, 10' before antigen challenge, 10 mg/kg): 32%
- % inhibition of rat PCA (PBS with NaHCO3, 30' before antigen challenge, 10 mg/kg): 19%

SMILES: Cc1c(OS(C)(=O)=O)ccc2c(=O)c3[nH]nnc3oc12 [Example 1e, 6-Mesyloxy-5-methyl-9-oxo-1H,9H-benzopyran o[2,3-d]-v-triazole]
- % inhibition of rat PCA (PBS with NaHCO3, 10' before antigen challenge, 5 mg/kg): 42%
- % inhibition of rat PCA (PBS with NaHCO3, 10' before antigen challenge, 20 mg/kg): 57%
- % inhibition of rat PCA (PBS with NaHCO3, 30' before antigen challenge, 5 mg/kg): 18%
- % inhibition of rat PCA (PBS with NaHCO3, 30' before antigen challenge, 20 mg/kg): 41%
